Here are results for 2 compounds from article PMC8787486 (mBio, 2022).

One data set deals with T1, BlaMab (Mycobacteroides abscessus, UniProt B1MCI3).
T1 construct: gene MAB_2875
The data set can be described thus: nitrocefin competition kinetics with purified enzyme; ESI-MS carbamoyl-enzyme adduct (+[…] Da); Kd = koff/(k2/K). It counts as biochemical.

In a further data set the target is T2, LdtMab2 (Mycobacteroides abscessus, UniProt B1MMQ4).
T2 construct: gene MAB_1530
T2 sequence (B1MMQ4 42-406): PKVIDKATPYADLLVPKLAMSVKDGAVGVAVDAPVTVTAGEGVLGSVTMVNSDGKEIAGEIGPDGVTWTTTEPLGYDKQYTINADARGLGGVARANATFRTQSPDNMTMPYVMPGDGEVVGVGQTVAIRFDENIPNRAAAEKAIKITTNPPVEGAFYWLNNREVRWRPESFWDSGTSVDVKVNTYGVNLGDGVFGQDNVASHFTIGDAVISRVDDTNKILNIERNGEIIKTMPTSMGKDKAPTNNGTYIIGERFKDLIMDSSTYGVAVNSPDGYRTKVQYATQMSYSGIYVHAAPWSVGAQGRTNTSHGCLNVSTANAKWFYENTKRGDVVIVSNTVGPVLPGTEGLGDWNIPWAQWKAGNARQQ
The data set can be described thus: timed ESI-MS of intact protein, +[…] Da carbamoyl-enzyme adduct after […] h. The format is binding.

Another data set deals with T3, LdtMab4 (Mycobacteroides abscessus, UniProt B1MKW1).
T3 construct: gene MAB_4537c
T3 sequence (B1MKW1 42-333): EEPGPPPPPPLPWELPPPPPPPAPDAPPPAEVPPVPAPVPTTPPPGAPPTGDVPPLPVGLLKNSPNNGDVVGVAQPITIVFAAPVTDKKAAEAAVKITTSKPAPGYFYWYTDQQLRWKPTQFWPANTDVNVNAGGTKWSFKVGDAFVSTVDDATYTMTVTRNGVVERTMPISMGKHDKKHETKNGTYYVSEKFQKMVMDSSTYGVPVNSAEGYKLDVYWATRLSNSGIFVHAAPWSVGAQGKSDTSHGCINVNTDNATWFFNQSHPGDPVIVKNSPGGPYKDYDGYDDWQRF
Described as above. The format is binding.

Data set [1] relates to O=C(Cc1cccs1)N[C@@H]1C(=O)N2C(C(=O)O)=C(/C=C/c3ccc([N+](=O)[O-])cc3[N+](=O)[O-])CS[C@H]12. The data set can be described thus: purified protein. It counts as biochemical, Mycobacteroides abscessus.

With `CC1=C[C@@H]2CN(C(=O)N2OS(=O)(=O)O)[C@@H]1C(N)=O` [DUR, durlobactam], the dissociation constant Kd at BlaMab was 0.2 ± 0.1 nM. For the same compound, the “timed ESI-MS of intact protein, +278 Da carbamoyl-enzyme adduct after 2 h” value on LdtMab2 is “DUR formed carbamoyl-enzyme complexes with D,D-c (Fig. 3B), LdtMab2, and LdtMab4 (Fig. 3C and E)”. Also, the “timed ESI-MS of intact protein, +276 Da carbamoyl-enzyme adduct after 2 h” value at LdtMab4 was “DUR formed carbamoyl-enzyme complexes with D,D-c (Fig. 3B), LdtMab2, and LdtMab4 (Fig. 3C and E)”.

As for “BlaMab (Mycobacteroides abscessus ATCC 19977)”, the Michaelis constant (Km) in data set [1] amounted to 22 µM.

A word on the Kd: it is a measure of binding affinity in units of concentration. Low values mean a tighter complex, high ones a looser complex. In general, Km refers to the substrate concentration at which the rate is half of its maximum.
